Experimental data: patent US20120101093A1, “SUBSTITUTED IMIDAZO[1,2-A]PYRIDINE DERIVATIVES, PHARMACEUTICAL COMPOSITIONS, AND METHODS OF USE AS BETA-SECRETASE INHIBITORS” (HIGH POINT PHARMACEUTICALS, LLC, priority 2009, published 2012)

molecular target: T1, BACE-1 enzyme (Homo sapiens, UniProt P56817); assay: BACE Fluorescence Resonance Energy Transfer (FRET) Assay; format: biochemical; settings: pH 4-4.5, 30 min pre-incubation, about 1.5 hours reaction
T1 construct: purchased R & D Systems 931AS
T1 sequence (P56817 46-457 limits assumed): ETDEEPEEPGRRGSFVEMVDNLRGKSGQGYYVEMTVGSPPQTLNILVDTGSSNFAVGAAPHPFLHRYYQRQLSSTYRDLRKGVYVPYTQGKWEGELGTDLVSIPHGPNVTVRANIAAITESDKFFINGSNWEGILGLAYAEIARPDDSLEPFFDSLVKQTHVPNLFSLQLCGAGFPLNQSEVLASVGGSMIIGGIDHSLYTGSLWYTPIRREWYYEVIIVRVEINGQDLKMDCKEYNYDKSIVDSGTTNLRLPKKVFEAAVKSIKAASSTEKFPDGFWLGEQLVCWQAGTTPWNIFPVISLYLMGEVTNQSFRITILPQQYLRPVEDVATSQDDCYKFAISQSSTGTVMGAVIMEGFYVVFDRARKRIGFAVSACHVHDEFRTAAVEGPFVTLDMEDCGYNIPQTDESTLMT
Method in brief: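 BACE-1 enzyme pre-incubated 30 min with compound in 7.5% DMSO in 50 mM sodium acetate pH 4-4.5, 0.01% CHAPS, 0.0125% Triton X-100, 0.006% EDTA. Rhodamine/quencher peptide substrate added; ~1.5 h at room temperature, fluorescence read at 540/585 nm. IC50 or percent inhibition at one concentration.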

| Structure (SMILES) | IC50 [µM] |
| --- | --- |
| O=C(Nc1nc2cc(-c3cccc(C(F)(F)F)c3)ccc2[nH]1)c1cn2cccc(CN3CCOCC3)c2n1 [Example 198, 8-Morpholin-4-ylmethyl-imidazo[1,2-a]pyridine-2-carboxylic acid [5-(3-trifluoromethyl-phenyl)-1H-benzoimidazol-2-yl]-amide] | 1.14 |
| O=C(Nc1nc2cc(-c3cccc(C(F)(F)F)c3)ccc2[nH]1)c1cn2ccc(CO)cc2n1 [Example 200, 7-Hydroxymethyl-imidazo[1,2-a]pyridine-2-carboxylic acid [5-(3-trifluoromethyl-phenyl)-1H-benzoimidazol-2-yl]-amide] | 0.46 |
| O=C(Nc1nc2cc(-c3cccc(C(F)(F)F)c3)ccc2[nH]1)c1cn2ccc(CN3CCNCC3)cc2n1 [Example 203, 7-Piperazin-1-ylmethyl-imidazo[1,2-a]pyridine-2-carboxylic acid [5-(3-trifluoromethyl-phenyl)-1H-benzoimidazol-2-yl]-amide] | 0.66 |
| COCCNCc1ccn2cc(C(=O)Nc3nc4cc(-c5cccc(C(F)(F)F)c5)ccc4[nH]3)nc2c1 [Example 208, 7-[(2-Methoxy-ethylamino)-methyl]-imidazo[1,2-a]pyridine-2-carboxylic acid [5-(3-trifluoromethyl-phenyl)-1H-benzoimidazol-2-yl]-amide] | 0.23 |
| Cn1cc(-c2cccc3nc(C(=O)Nc4nc5cc(-c6cccc(C(F)(F)F)c6)ccc5[nH]4)cn23)cn1 [Example 213, 5-(1-methyl-1H-pyrazol-4-yl)-N-{5-[3-(trifluoromethyl)phenyl]-1H-benzimidazol-2-yl}imidazo[1,2-a]pyridine-2-carboxamide] | 0.26 |
| O=C(Nc1nc2cc(-c3cccc(C(F)(F)F)c3)ccc2[nH]1)c1cn2cccc(-c3ccccc3)c2n1 [Example 216, 8-phenyl-N-{5-[3-(trifluoromethyl)phenyl]-1H-benzimidazol-2-yl}imidazo[1,2-a]pyridine-2-carboxamide] | 0.65 |
| O=C(Nc1nc2cc(-c3cccc(C(F)(F)F)c3)ccc2[nH]1)c1cn2c(C3CCNCC3)cccc2n1 [Example 218, 5-(piperidin-4-yl)-N-{5-[3-(trifluoromethyl)phenyl]-1H-benzimidazol-2-yl}imidazo[1,2-a]pyridine-2-carboxamide] | 0.45 |
| CCc1cccc2nc(C(=O)Nc3nc4cc(-c5cccc(OC(F)(F)F)c5)ccc4[nH]3)cn12 [Example 224, 5-ethyl-N-{5-[3-(trifluoromethoxy)phenyl]-1H-benzimidazol-2-yl}imidazo[1,2-a]pyridine-2-carboxamide] | 0.55 |
| O=C(Nc1nc2cc(-c3cc(F)cc(Cl)c3)ccc2[nH]1)c1cn2c(C(=O)NC3CCNCC3)cccc2n1 [Example 225, Imidazo[1,2-a]pyridine-2,5-dicarboxylic acid 2-{[5-(3-chloro-5-fluoro-phenyl)-1H-benzoimidazol-2-yl]-amide} 5-piperidin-4-ylamide] | 0.48 |
| CN(C)C(=O)c1cccn2cc(C(=O)Nc3nc4cc(-c5cccc(C(F)(F)F)c5)ccc4[nH]3)nc12 [Example 230, Imidazo[1,2-a]pyridine-2,8-dicarboxylic acid 8-dimethylamide 2-{[5-(3-trifluoromethyl-phenyl)-1H-benzoimidazol-2-yl]-amide}] | 0.28 |
| COCCNC(=O)c1cccn2cc(C(=O)Nc3nc4cc(-c5cccc(C(F)(F)F)c5)ccc4[nH]3)nc12 [Example 231, Imidazo[1,2-a]pyridine-2,8-dicarboxylic acid 8-[(2-methoxy-ethyl)-amide] 2-{[5-(3-trifluoromethyl-phenyl)-1H-benzoimidazol-2-yl]-amide}] | 0.31 |

The remaining molecules from weak to strong by IC50, led by results:

| IC50 [µM] | Structure (SMILES) |
| --- | --- |
| 1.23 | CC(C)c1cccc2nc(C(=O)Nc3nc4cc(-c5cccc(C(F)(F)F)c5)ccc4[nH]3)cn12 [Example 222, 5-(propan-2-yl)-N-{5-[3-(trifluoromethyl)phenyl]-1H-benzimidazol-2-yl}imidazo[1,2-a]pyridine-2-carboxamide] |
| 0.83 | CC(C)c1cccc2nc(C(=O)Nc3nc4cc(-c5cccc(OC(F)(F)F)c5)ccc4[nH]3)cn12 [Example 223, 5-(propan-2-yl)-N-{5-[3-(trifluoromethoxy)phenyl]-1H-benzimidazol-2-yl}imidazo[1,2-a]pyridine-2-carboxamide] |
| 0.41 | CO[C@H]1CCN(c2ccc3nc(C(=O)Nc4nc5cc(-c6cccc(Cl)c6)ccc5[nH]4)cn3c2)C1 [Example 233, 6-((S)-3-Methoxy-pyrrolidin-1-yl)-imidazo[1,2-a]pyridine-2-carboxylic acid [5-(3-chloro-phenyl)-1H-benzoimidazol-2-yl]-amide] |
| 0.38 | CCCc1cccc2nc(C(=O)Nc3nc4cc(-c5cccc(C(F)(F)F)c5)ccc4[nH]3)cn12 [Example 220, 5-propyl-N-{5-[3-(trifluoromethyl)phenyl]-1H-benzimidazol-2-yl}imidazo[1,2-a]pyridine-2-carboxamide] |
| 0.28 | CCCc1cccc2nc(C(=O)Nc3nc4cc(-c5cccc(OC(F)(F)F)c5)ccc4[nH]3)cn12 [Example 221, 5-propyl-N-{5-[3-(trifluoromethoxy)phenyl]-1H-benzimidazol-2-yl}imidazo[1,2-a]pyridine-2-carboxamide] |
| 0.26 | CN(C)CCNCc1ccn2cc(C(=O)Nc3nc4cc(-c5cccc(C(F)(F)F)c5)ccc4[nH]3)nc2c1 [Example 212, 7-[(2-Dimethylamino-ethylamino)-methyl]-imidazo[1,2-a]pyridine-2-carboxylic acid [5-(3-trifluoromethyl-phenyl)-1H-benzoimidazol-2-yl]-amide] |
| 0.24 | CCN(CCO)Cc1ccn2cc(C(=O)Nc3nc4cc(-c5cccc(C(F)(F)F)c5)ccc4[nH]3)nc2c1 [Example 211, 7-{[Ethyl-(2-hydroxy-ethyl)-amino]-methyl}-imidazo[1,2-a]pyridine-2-carboxylic acid [5-(3-trifluoromethyl-phenyl)-1H-benzoimidazol-2-yl]-amide] |
| 0.18 | O=C(Nc1nc2cc(-c3cccc(C(F)(F)F)c3)ccc2[nH]1)c1cn2ccc(CNCCN3CCOCC3)cc2n1 [Example 210, 7-[(2-Morpholin-4-yl-ethylamino)-methyl]-imidazo[1,2-a]pyridine-2-carboxylic acid [5-(3-trifluoromethyl-phenyl)-1H-benzoimidazol-2-yl]-amide] |
| 0.16 | CNC(=O)c1cccn2cc(C(=O)Nc3nc4cc(-c5cccc(C(F)(F)F)c5)ccc4[nH]3)nc12 [Example 229, Imidazo[1,2-a]pyridine-2,8-dicarboxylic acid 8-methylamide 2-{[5-(3-trifluoromethyl-phenyl)-1H-benzoimidazol-2-yl]-amide}] |
| 0.15 | O=C(Nc1nc2cc(-c3cccc(C(F)(F)F)c3)ccc2[nH]1)c1cn2c(-c3ccncc3)cccc2n1 [Example 217, 5-(pyridin-4-yl)-N-{5-[3-(trifluoromethyl)phenyl]-1H-benzimidazol-2-yl}imidazo[1,2-a]pyridine-2-carboxamide] |
| 0.14 | O=C(Nc1nc2cc(-c3cccc(Cl)c3)ccc2[nH]1)c1cn2cc(N3CC[C@H](O)C3)ccc2n1 [Example 232, 6-((S)-3-Hydroxy-pyrrolidin-1-yl)-imidazo[1,2-a]pyridine-2-carboxylic acid [5-(3-chloro-phenyl)-1H-benzoimidazol-2-yl]-amide] |
